Values joined by “and” are separate entries in the source; they are usually repeats but may differ in a detail not shown here. Identical values can stand only once. Inconclusive results and toxic doses are left out. How the source made its calls: active means survival T/C of 150% or more; inactive means T/C below 125% in these data.
Tested on: CD2F1 mice, L1210 leukemia ip, survival T/C
Assay: NCI In Vivo Anticancer Drug Screen. Data for tumor model L1210 Leukemia (intraperitoneal) in CD2F1 (CDF1) mice
Details: higher = longer survival
Method in brief: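 Read-out first: treated-group measurement over vehicle-control measurement, expressed as a ratio. Animals bore a transplanted tumor line and were dosed with compound or vehicle.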

[1] = endpoint: mean survival time, dose: 100.0 mg/kg/injection, schedule: Q01DX009 (ip), vehicle: saline with Tween-80
[2] = endpoint: mean survival time, dose: 100.0 mg/kg/injection, schedule: Q04DX002 (ip), vehicle: saline with Tween-80
[3] = endpoint: mean survival time, dose: 100.0 mg/kg/injection, schedule: Q04DX003 (ip), vehicle: saline with Tween-80
[4] = endpoint: mean survival time, dose: 200.0 mg/kg/injection, schedule: Q01DX009 (ip), vehicle: saline with Tween-80
[5] = endpoint: mean survival time, dose: 200.0 mg/kg/injection, schedule: Q04DX002 (ip), vehicle: saline with Tween-80
[6] = endpoint: mean survival time, dose: 200.0 mg/kg/injection, schedule: Q04DX003 (ip), vehicle: saline with Tween-80
[7] = endpoint: mean survival time, dose: 400.0 mg/kg/injection, schedule: Q04DX002 (ip), vehicle: saline with Tween-80
[8] = endpoint: mean survival time, dose: 400.0 mg/kg/injection, schedule: Q04DX003 (ip), vehicle: saline with Tween-80
[9] = endpoint: mean survival time, dose: 400.0 mg/kg/injection, schedule: Q01DX009 (ip), vehicle: saline with Tween-80

Measured: T/C

O=C(O)/C(=C\c1cccc([N+](=O)[O-])c1)c1ccccc1
inactive: endpoint: mean survival time, dose: 100.0 mg/kg/injection, schedule: Q01DX001 (ip), vehicle: saline with Tween-80 97 % of control | [1] 91 % of control and 107 % of control | [2] 100 % of control and 105 % of control | [3] 100 % of control | endpoint: mean survival time, dose: 200.0 mg/kg/injection, schedule: Q01DX001 (ip), vehicle: saline with Tween-80 96 % of control | [4] 93 % of control | [5] 101 % of control and 103 % of control | [6] 100 % of control | [7] 90 % of control and 92 % of control | [8] 100 % of control

O=C(O)c1cscc1-c1ccccc1
inactive: [3] 104 % of control | [6] 104 % of control | [8] 102 % of control

O=C1C2C(C(=O)N1c1ccc([N+](=O)[O-])cc1)C1c3ccccc3C2C2CCCCN21 (configuration not stated)
inactive: endpoint: mean survival time, dose: 100.0 mg/kg/injection, schedule: Q01DX001 (ip), vehicle: Klucel (hydroxypropylcellulose) (HPC) 93 % of control | endpoint: mean survival time, dose: 200.0 mg/kg/injection, schedule: Q01DX001 (ip), vehicle: Klucel (hydroxypropylcellulose) (HPC) 101 % of control | endpoint: mean survival time, dose: 400.0 mg/kg/injection, schedule: Q01DX001 (ip), vehicle: Klucel (hydroxypropylcellulose) (HPC) 100 % of control

COc1ccc(OC)c(/C=C/c2ccc3ccccc3n2)c1
inactive: [1] 110 % of control | [3] 104 % of control | [4] 98 % of control | [6] 104 % of control | [9] 106 % of control | [8] 108 % of control

COc1ccc(-c2nc(N)c3ncn(C4OC(CO)C(O)C4O)c3n2)cc1 (configuration not stated)
inactive: endpoint: mean survival time, dose: 12.5 mg/kg/injection, schedule: Q01DX005 (ip), vehicle: distilled water + Tween-80 98 % of control | endpoint: mean survival time, dose: 25.0 mg/kg/injection, schedule: Q01DX005 (ip), vehicle: distilled water + Tween-80 98 % of control | endpoint: mean survival time, dose: 50.0 mg/kg/injection, schedule: Q01DX005 (ip), vehicle: distilled water + Tween-80 96 % of control | endpoint: mean survival time, dose: 200.0 mg/kg/injection, schedule: Q01DX005 (ip), vehicle: distilled water + Tween-80 88 % of control

CC1CN=C(c2ccc(Br)cc2)O1 (configuration not stated)
inactive: endpoint: mean survival time, dose: 100.0 mg/kg/injection, schedule: Q04DX003 (ip), vehicle: saline 103 % of control | endpoint: mean survival time, dose: 200.0 mg/kg/injection, schedule: Q04DX003 (ip), vehicle: saline 96 % of control | endpoint: mean survival time, dose: 400.0 mg/kg/injection, schedule: Q04DX003 (ip), vehicle: saline 103 % of control

Cc1nc2c(O)cccn2c(=O)c1Cl
inactive: [3] 102 % of control

C=CCNC(C)=O
inactive: endpoint: mean survival time, dose: 100.0 mg/kg/injection, schedule: Q01DX001 (ip), vehicle: saline 103 % of control | endpoint: mean survival time, dose: 200.0 mg/kg/injection, schedule: Q01DX001 (ip), vehicle: saline 97 % of control | endpoint: mean survival time, dose: 400.0 mg/kg/injection, schedule: Q01DX001 (ip), vehicle: saline 103 % of control

COc1ccc(C(=O)CN(C)S(=O)(=O)c2ccc(C)cc2)cc1
inactive: [2] 97 % of control | [5] 97 % of control | [7] 94 % of control

O=C(NCCCl)NC1CCSc2ccccc21 (configuration not stated)
inactive: endpoint: mean survival time, dose: 50.0 mg/kg/injection, schedule: Q01DX009 (ip), vehicle: saline with Tween-80 95 % of control | [1] 91 % of control | [4] 91 % of control

CC(C)(C)C(O)CC(O)(C(F)(F)Cl)C(F)(F)Cl (configuration not stated)
inactive: [1] 101 % of control | [4] 109 % of control | [9] 105 % of control

Oc1cccc2ccccc12
inactive: endpoint: median survival time, dose: 50.0 mg/kg/injection, schedule: Q01DX005 (ip), vehicle: water 95 % of control | endpoint: median survival time, dose: 100.0 mg/kg/injection, schedule: Q01DX005 (ip), vehicle: water 95 % of control | endpoint: median survival time, dose: 200.0 mg/kg/injection, schedule: Q01DX005 (ip), vehicle: water 101 % of control | endpoint: median survival time, dose: 400.0 mg/kg/injection, schedule: Q01DX005 (ip), vehicle: water 93 % of control

O=C(O)c1cc(-c2ccc(-c3ccc(-c4cc(C(=O)O)c5cc(Cl)ccc5n4)cc3)cc2)nc2ccc(Cl)cc12
inactive: [1] 91 % of control | [4] 91 % of control | [9] 100 % of control

CC1(C)N=C(N)N=C(N)N1c1ccc(OCCOc2ccc(NC(=O)CBr)cc2)cc1
inactive: endpoint: mean survival time, dose: 176.0 mg/kg/injection, schedule: Q01DX006 (ip), vehicle: other 118 % of control | endpoint: mean survival time, dose: 266.0 mg/kg/injection, schedule: Q01DX006 (ip), vehicle: other 124 % of control | endpoint: mean survival time, dose: 600.0 mg/kg/injection, schedule: Q01DX006 (ip), vehicle: other 94 % of control

Source: PubChem BioAssay AID256 (DTP/NCI, 2004)
